Results: patent US20220143183A1, “PHOTOSWITCHABLE PROTACS AND SYNTHESIS AND USES THEREOF” (New York University, priority 2019, published 2022)
“Also recorded” adds a separate entry of the source.

Tests used:
BRD4 [1] = target: T1, BRD4 (Homo sapiens, UniProt O60885); experiment: Immunoblot of BRD4 degradation in MB-MDA-468 cells; type: cell-based; set-up: Immunoblot analysis after treatment of MB-MDA-231 cells with PHOTAC-I-3 for 18 h at different concentrations; endogenous in cells; host or cells: MB-MDA-231 (A10) and MB-MDA-468 (A11) (so in the source); conditions: 18 h, 390 nm pulses vs dark
Description: (§1) FIG. 10 depicts an immunoblot analysis of PHOTAC-I-3 A) Immunoblot analysis after treatment of MB-MDA-231 cells with PHOTAC-I-3 for 18 h at different concentrations. Cells were either irradiated with 100 ms pulses of 390 nm light every 10 s (left) or kept the dark (right). B) Immunoblot analysis after treatment of MB-MDA-468 cells with PHOTAC-I-3 for 18 h at different concentrations. Cells were either irradiated with 100 ms pulses of 390 nm light every 10 s (left) or kept the dark (right). (MWM, molecular weight marker). C) Immunoblot of BRD4 degradation in RS4;11 cells, promoted by PHOTAC-I-3 (300 nM) after 1 minute of irradiation (100 ms every 10 s), highlighting sustained degradation at the applied dosage.
(§2) Photoactivatable degraders and inhibitors of BRD4, c-MYC levels were also affected.

c-MYC = experiment: Immunoblot of c-MYC levels in RS4;11 cells; type: cell-based, human
Description: as §2
The slight effect on c-MYC can be explained by inhibition of BRD4 with the (+)-JQ1 derivative PHOTAC-I-3 in the absence of targeted degradation.
Western Immunoblot Analysis. Rabbit monoclonal Antibodies for BRD4 (#13440), β-Actin (#4970) c-Myc (#5605) and Anti-rabbit IgG, HRP-linked Antibody (#7074) were purchased from Cell Signalling Technologies.
Cells were incubated with different concentrations of selected compounds. They were placed in a light-proof box and preirradiated for 1 min at 390 nm followed by 100 ms pulses every 10 s or were kept in the dark for 4 h.
Cultured cells were collected by centrifugation and washed twice with cold PBS. The supernatant was removed and each cell pellet was lysed in 100 μL NP40-Cell-Lysis Buffer+0.1% SDS+1 mM PMSF+ protease inhibitor cocktail (Sigma Aldrich) for 30 min on ice, with vortexing at 10-minute intervals. Afterwards, cells were centrifuged at 13.000 rpm for 10 min at 4° C. Samples were stored on ice and the supernatant was collected for protein concentration determination using a Thermofisher Scientific Pierce™ Coomassie Plus (Bradford) Assay Kit.
The samples were diluted each with 5 μL Laemmli sample buffer Invitrogen (NuPAGE LDS Sample Buffer 4×) and 1 μL DTT, heated at 95° C. for 5 min. […]

BRD4 [2] = target: T1, BRD4; experiment: Immunoblot of BRD4 degradation in MB-MDA-231 cells; type: cell-based; set-up: Immunoblot analysis after treatment of MB-MDA-231 cells with PHOTAC-I-3 for 18 h at different concentrations; endogenous in cells; host or cells: MB-MDA-231 (A10) and MB-MDA-468 (A11) (so in the source); conditions: 18 h, 390 nm pulses vs dark
Description: as §1, §2

## COc1cc(/N=N/c2cccc3c2CN(C2CCC(=O)NC2=O)C3=O)cc(OC)c1OCC(=O)NCCCCNC(=O)C[C@@H]1N=C(c2ccc(Cl)cc2)c2c(sc(C)c2C)-n2c(C)nnc21 (stereo partly drawn) [PHOTAC-I-3, 2-((S)-4-(4-chlorophenyl)-2,3,9-trimethyl-6H-thieno[3,2-f][1,2,4]triazolo[4,3-a][1,4]diazepin-6-yl)-N-(4-(2-(4-((E)-(2-(2,6-dioxopiperidin-3-yl)-1-oxoisoindolin-4-yl)diazenyl)-2,6-dimethoxyphenoxy)acetamido)butyl)acetamide]
BRD4 [1]
  BRD4 degradation: light-dependent degradation of BRD4
c-MYC; 390 nm pulse irradiation
  c-MYC downregulation: more pronounced when cells were pulse-irradiated; also recorded: c-MYC downregulation over 24 hours
c-MYC; in the dark
  c-MYC levels: relatively little effect on c-MYC levels
BRD4 [2]
  BRD4 degradation: light-dependent degradation of BRD4
